Reference: ChEMBL document CHEMBL1150177, “Antineoplastic agents, 178. Isolation and structure of lychnostatins 1 and 2 from the South American Lychnophora antillana” (1990)
≈ marks a conversion by molar mass, not a printed value.

Test system: P388
Test: Cytotoxicity against mouse P388 cells
Format: functional
Conditions: read-out: ED50 (the source's name)

**Q.** How did the EC50 turn out when `C=C(C)C(=O)O[C@H]1C[C@@](C)(OC(C)=O)C(=O)CC[C@H](C)[C@H](O)[C@H]2OC(=O)C(=C)[C@@H]21` [LYCHNOSTATIN 1] was run?
**A.** 2 µg/mL (≈ 4.9 µM)

**Q.** `C=C(C)C(=O)O[C@H]1C[C@@](C)(OC(C)=O)C(=O)CC[C@H](C)C[C@H]2OC(=O)C(=C)[C@H]12` [LYCHNOSTATIN 2] was tested. Which EC50 did it give?
**A.** 0.19 µg/mL (≈ 0.484 µM)
